Experimental data reported in article PMC11767423, “Design, Synthesis, and Antioxidant and Anti-Tyrosinase Activities of (Z)-5-Benzylidene-2-(naphthalen-1-ylamino)thiazol-4(5H)-one Analogs: In Vitro and In Vivo Insights” (Molecules, 2025).
pKi: −log10 of the molar value.

Experiments:
[1] = Assay for DPPH radical scavenging; conditions: 500 μM; 30 min in the dark
Description: To evaluate the DPPH radical-scavenging efficacy of 1–15, a DPPH methanol solution was mixed with compounds 1–15, and the mixture was left in the dark. After 30 min, the radical-scavenging efficacy of each compound was determined by measuring the optical density at 517 nm. Vitamin C (L-ascorbic acid) was used for comparing radical-scavenging activity, and all test samples were treated at 500 μM.
DPPH was dissolved in methanol to prepare a 0.2 mM solution, and test samples (vitamin C [L-ascorbic acid, LA; positive control] and 1–15) were dissolved in DMSO to prepare a 5 mM solution. The DPPH methanolic solution (180 μL) was added to the test sample DMSO solution (20 μL) in each well of a 96-well microplate and kept in a place without light for 30 min at 22 °C. Using a VersaMax™ ELISA reader, the optical density of each well was recorded at 517 nm to determine DPPH radical-scavenging activity.

[2] = molecular target: mushroom tyrosinase (Agaricus bisporus, UniProt C7FF04); assay: Kinetic experiment using mushroom tyrosinase (Lineweaver–Burk and Dixon plots); assay type: biochemical; conditions: for pKi: Dixon plots, substrate L-DOPA; for inhibition mechanism: Lineweaver–Burk plots, L-DOPA 1–16 mM
Chain of mushroom tyrosinase (C7FF04 1-392): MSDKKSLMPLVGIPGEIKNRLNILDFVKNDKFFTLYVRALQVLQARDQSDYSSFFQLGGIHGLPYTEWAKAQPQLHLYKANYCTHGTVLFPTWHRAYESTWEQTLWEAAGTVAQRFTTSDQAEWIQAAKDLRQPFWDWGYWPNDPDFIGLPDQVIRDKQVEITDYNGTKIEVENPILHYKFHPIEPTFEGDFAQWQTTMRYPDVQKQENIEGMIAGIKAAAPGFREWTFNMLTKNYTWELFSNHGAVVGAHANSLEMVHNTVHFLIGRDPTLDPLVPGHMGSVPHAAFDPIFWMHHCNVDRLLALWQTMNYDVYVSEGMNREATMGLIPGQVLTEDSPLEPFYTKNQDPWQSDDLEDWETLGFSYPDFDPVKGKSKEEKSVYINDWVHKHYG
Description: The plots for inhibitors 10 and 15 were obtained by measuring the initial rate of dopachrome production in the presence of various L-DOPA substrate concentrations (Figure 3A,C). For the kinetic experiments, compounds 10 and 15 were used at 0, 1, 2, and 4 μM and at 0, 4, 8, and 16 μM, respectively.
Ki, known as the dissociation constant or inhibition constant, describes the binding affinity between the enzyme and inhibitor. […] Dixon plots were acquired by plotting the inverse of the initial dopachrome formation rate against the inhibitor concentration (Figure 3B,D). Each Dixon plot produces four lines that merge at one point in the second quadrant. The absolute value of the x co-ordinate of the merge point represents the Ki value. […] The lower the Ki value, the stronger the binding affinity. Thus, compound 10 bound more strongly to the tyrosinase active site than compound 15.
The identification of the tyrosinase inhibition mechanism was carried out by kinetic studies using mushroom tyrosinase. Test samples (10 μL; compounds 10 and 15) were mixed with a mushroom tyrosinase aqueous solution (20 μL; 100 units/mL) and a substrate solution (170 μL; substrate [L-DOPA] and 17.2 mM sodium phosphate pH 6.5 buffer) in each well of 96-well microplate. To obtain Lineweaver–Burk plots for kinetic analysis, L-DOPA and test samples were used at various concentrations: 0, 1, 2, and 4 μM for 10; 0, 4, 8, and 16 μM for 15; and 1, 2, 4, 8, and 16 mM for L-DOPA. During a 30 min incubation period, the initial dopachrome formation rate was calculated by measuring the optical density at 475 nm at 5 min intervals using an ELISA reader. Lineweaver–Burk plots were prepared by plotting the inverse of the substrate concentration against the inverse of the initial dopachrome formation rate in the presence of four different concentrations of compounds 10 and 15.

[3] = tested on: tyrosinase activity of zebrafish larvae; assay: Tyrosinase activity in zebrafish larvae; assay type: in vivo, Danio rerio; conditions: 76 hpf
Description: To quantify the tyrosinase activity in zebrafish larvae, 60 zebrafish larvae at 76 hpf were divided into three Eppendorf tubes and centrifuged at 10,000× g for 10 min at 4 °C. After removing the supernatant, the residue was lysed using radioimmunoprecipitation assay buffer (100 μL) (Biosedang, Gyeonggi-do, Republic of Korea) and homogenized for 5 min using a sonicator. The lysate was centrifuged at 10,000× g for 10 min at 4 °C. The supernatants were transferred to a new Eppendorf tube and the protein content was quantified using a bicinchoninic acid protein assay kit (Thermo Fisher Scientific, Waltham, MA, USA). An aliquot (100 μL) of 1 mM L-DOPA was added to the new Eppendorf tube containing a total of 300 μg of protein in 100 μL of protein lysate. Eppendorf tubes were incubated for 1 h at 37 °C and then transferred to each well of a 96-well plate. The absorbance of each well was measured at 475 nm to determine the tyrosinase activity of zebrafish larvae.

[4] = tested on: zebrafish larvae; assay: Zebrafish depigmentation assay using zebrafish embryos; assay type: in vivo, Danio rerio; conditions: 0.1 mM vs kojic acid 20 mM; treated at 28 hpf, read at 76 hpf
Description: Zebrafish embryos were used to determine whether the synthesized compounds could inhibit melanin synthesis in vivo. […] The degree of depigmentation in zebrafish larvae was confirmed by photography 48 h later (Figure 8A). The density of the zebrafish larvae was measured using a CS analyzer 3.2 (Atto, Tokyo, Japan). […] To obtain zebrafish (wild type, Danio rerio) eggs for the experiment, six male and nine female zebrafish were raised separately in oxygen-connected tanks. Dried brine shrimp (Artemia salina, San Francisco Bay Brand, San Francisco, CA, USA) were fed as food three times per day. They were raised at 28 °C with 10 h of light blocking and 14 h of light exposure. The evening before obtaining zebrafish eggs, three females and two males were placed together in three zebrafish mating cages, and the light was blocked. The following morning, mating was induced by exposure to light. Harvested zebrafish eggs, obtained free of charge from the Zebrafish Center for Disease Modeling (Chungnam National University, Daejeon, Republic of Korea), were kept in an E3 embryonic solution containing methylene blue (MB) until the dechorionation process was performed. […] The pigmented areas in the zebrafish larval photographs were determined using an ATTO CS analyzer 3.2 (Tokyo, Japan).

[5] = tested on: B16F10 cells; assay: Cell viability on B16F10 cells (EZ-Cytox); assay type: cell-based; conditions: 72 h; for B16F10 cell viability: 1, 2, 5, 10 and 20 μM
Description: Therefore, we investigated whether these compounds exert tyrosinase inhibitory activity in B16F10 mammalian cells. We examined the effects of these compounds on B16F10 cell viability. Cell viability was assessed for 72 h at five concentrations (1, 2, 5, 10, and 20 μM) of compounds 10 and 15.
The viability of B16F10 cells in the presence of compounds 10 and 15 was assayed. A 96-well microplate containing 1 × 10^3 B16F10 cells per well was incubated at 37 °C in a humid environment containing 5% CO2 for 24 h. Test samples (10 and 15) were added to each well at concentrations of 0, 1, 2, 5, 10, and 20 μM and incubated for 72 h. Each well was exposed to a 10 μL EZ-Cytox solution (EZ-500®, DoGenBio, Seoul, Republic of Korea) and incubated for 2 h. To determine cell viability, well optical density was measured at 450 nm using an ELISA reader.

[6] = Assay for ABTS+ radical scavenging; conditions: 100 μM
Description: The ABTS^+-scavenging efficacy of compounds 1–15 was determined by oxidizing ABTS with K2S2O8 to prepare ABTS^+. The prepared ABTS^+ solution was mixed with the test samples (1–15 and Trolox, a positive control) and the radical-scavenging efficacy of the test samples was explored by measuring the decrease in optical density at 732 nm. All test samples were tested at 100 μM.
To acquire ABTS^+ radicals, ABTS (14 mM in 20 mL H2O) was mixed with K2S2O8 (4.9 mM in 20 mL H2O), an oxidant agent, and stored at 22 °C in a place without light for 15 h. The absorbance of the prepared ABTS^+ radical solution was adjusted to 0.70 ± 0.01 at 732 nm by adding methanol. Test samples (Trolox [positive control] and 1–15) were dissolved in a co-solvent (DMSO:EtOH = 1:10 [v/v]). The diluted ABTS^+ radical solution (90 μL) was added to the test sample solution (10 μL) in each well of a 96-well plate and held at 22 °C in the dark for 2 min. The optical density of each well was recorded at 732 nm every 1 min for 10 min using an ELISA reader. The final concentration of test samples was 100 μM. %Radical-scavenging activity was determined using the formula 100 × [(Abscon − Abssam)/Abscon], where Abscon and Abssam represent the optical densities of the control and the samples, respectively.

[7] = tested on: B16F10 cells; assay: In situ cellular tyrosinase activity assay (L-DOPA staining); assay type: cell-based; conditions: α-MSH + IBMX, 72 h, then L-DOPA 2 h
Description: The effect of 10 on cellular tyrosinase activity was investigated in situ using L-DOPA and B16F10 cells. This experimental method allows for the direct observation of cellular melanin production. […] After 72 h of incubation, the cells were treated with L-DOPA for 2 h to induce melanin production.
A 24-well plate containing 1 × 10^3 B16F10 cells per well was incubated at 37 °C for 24 h. […] After incubation for 72 h, the cells were fixed for 50 min using paraformaldehyde (4%), rinsed twice with PBS, and permeabilized for 2 min using Triton X-100 (0.1%). The cells were washed with PBS and 500 μL of 2 mM L-DOPA solution was added. After the cells were incubated at 37 °C for 2 h, stained images were obtained using a camera connected to a microscope (Motic, Hong Kong, China).

[8] = tested on: B16F10 cellular tyrosinase; assay: Cellular tyrosinase activity assay in B16F10 cells; assay type: cell-based; conditions: α-MSH + IBMX, 72 h
Description: We analyzed the effect of 10 on B16F10 cellular tyrosinase activity to determine whether the ability of 10 inhibiting melanogenesis results from its ability to inhibit cellular tyrosinase activity.
A 6-well microplate containing 5 × 10^3 B16F10 cells per well was incubated at 37 °C for 24 h. Compound 10 was added to each well at 5, 10, and 20 μM and incubated for 1 h, and then stimulators (1 μM α-MSH and 200 μM IBMX) were added to each well before 72 h incubation.
To measure the cellular tyrosinase activity, the cells incubated for 72 h were washed 2 times with PBS, exposed to a 100 μL lysis buffer solution containing 5 μL 2 mM phenylmethylsulfonyl fluoride, 5 μL 20% Triton X-100, and 90 μL 50 mM phosphate buffer (pH 6.5), and cultivated for 30 min at −80 °C. After the lysates were centrifuged at 4 °C for 10 min at 10,000× g, an aliquot (80 μL) of the supernatants was added to each well of a 96-well microplate containing 20 μL of 10 mM L-DOPA. Data for the optical density at 475 nm were obtained every 1 min for 10 min at 37 °C using an ELISA reader to determine cellular tyrosinase activity.

[9] = tested on: B16F10 cells; assay: Melanin content assay in B16F10 cells; assay type: cell-based; conditions: α-MSH + IBMX, 72 h
Description: After 72 h, the effect of compound 10 on melanin biosynthesis was determined. A 6-well microplate containing 5 × 10^3 B16F10 cells per well was incubated at 37 °C for 24 h. Compound 10 was added to each well at 5, 10, and 20 μM and incubated for 1 h, and then stimulators (1 μM α-MSH and 200 μM IBMX) were added to each well before 72 h incubation. […] For the melanin content quantification, the cells were lysed at 60 °C for 1 h in 100 μL 1N-NaOH solution containing 10% DMSO after washing 2 times with phosphate-buffered saline (PBS). The cell lysates were transferred to a 96-well microplate and the optical density was measured at 405 nm using an ELISA reader to calculate the melanin content in each well.

## COc1cc(/C=C2\SC(Nc3cccc4ccccc34)=NC2=O)ccc1O [Compound 5, (Z)-5-(4-Hydroxy-3-methoxybenzylidene)-2-(naphthalen-1-ylamino)thiazol-4(5H)-one]
[1]
  DPPH radical scavenging: 62%

## O=C1O[C@H]([C@@H](O)CO)C(O)=C1O [Vitamin C, L-ascorbic acid, reference compound]
[1]
  DPPH radical scavenging: 90%

## O=C1N=C(Nc2cccc3ccccc23)S/C1=C\c1ccc(O)c(Br)c1 [Compound 15, (Z)-5-(3-Bromo-4-hydroxybenzylidene)-2-(naphthalen-1-ylamino)thiazol-4(5H)-one]
[2]
  pKi: 5.31
  inhibition mechanism: compete with the substrates for binding to the active site of tyrosinase
[3]; 0.3 mM vs kojic acid 20 mM
  tyrosinase activity of zebrafish larvae compared with kojic acid: comparable to that of kojic acid, even at a concentration 70 times lower
[3]; 0.1 and 0.3 mM
  tyrosinase activity of zebrafish larvae: decreased tyrosinase activity in a concentration-dependent manner
[4]
  depigmentation capacity in zebrafish larvae: depigmentation capacity similar to that of kojic acid, even at a concentration 200 times lower
[5]; 1 μM
  cytotoxicity in B16F10 cells: significant cytotoxicity was observed
[5]
  B16F10 cell viability: clearly reduced cell viability in a concentration-dependent manner

## COc1cc(/C=C2\SC(Nc3cccc4ccccc34)=NC2=O)cc(OC)c1O [Compound 13, (Z)-5-(4-Hydroxy-3,5-dimethoxybenzylidene)-2-(naphthalen-1-ylamino)thiazol-4(5H)-one]
[1]
  DPPH radical scavenging: 51%
[6]
  ABTS+ scavenging: 97%

## O=C1N=C(Nc2cccc3ccccc23)S/C1=C\c1ccc(O)cc1O [Compound 10, (Z)-5-(2,4-Dihydroxybenzylidene)-2-(naphthalen-1-ylamino)thiazol-4(5H)-one]
[1]
  DPPH radical scavenging: 51%
[7]; 20 μM
  in situ melanin formation (L-DOPA staining): reduced melanin formation to the level of the untreated control
[7]; 5, 10 and 20 μM
  in situ melanin formation (L-DOPA staining): dose-dependently decreased melanin formation
[8]; 10 μM
  cellular tyrosinase activity: slightly more potent tyrosinase inhibitory potency than kojic acid at 20 μM
[8]; 20 μM
  cellular tyrosinase activity: reduced cellular tyrosinase activity to almost the level of cellular tyrosinase activity in the untreated control
[8]; 5, 10 and 20 μM
  cellular tyrosinase activity: dose-dependent decrease in cellular tyrosinase activity
[2]
  pKi: 5.69
  inhibition mechanism: compete with the substrates for binding to the active site of tyrosinase
[9]; 5 μM, kojic acid at 20 μM
  stimulator-induced melanin content: reduced the stimulator-induced melanin content levels similarly to kojic acid
[9]; 20 μM, controls 100%
  melanin content level: 86%
[9]; 5, 10 and 20 μM
  stimulator-induced melanin content: strongly reduced stimulator-induced melanin content dose-dependently
[5]
  B16F10 cell viability: no perceptible effect on B16F10 cell viability
[6]
  ABTS+ scavenging: 97%

## CC(C)(C)c1cc(/C=C2\SC(Nc3cccc4ccccc34)=NC2=O)cc(C(C)(C)C)c1O [Compound 14, (Z)-5-(3,5-Di-tert-butyl-4-hydroxybenzylidene)-2-(naphthalen-1-ylamino)thiazol-4(5H)-one]
[1]
  DPPH radical scavenging: 68%
[6]
  ABTS+ scavenging: 95%

## CCOc1cc(/C=C2\SC(Nc3cccc4ccccc34)=NC2=O)ccc1O [Compound 7, (Z)-5-(3-Ethoxy-4-hydroxybenzylidene)-2-(naphthalen-1-ylamino)thiazol-4(5H)-one]
[1]
  DPPH radical scavenging: 61%

## COc1ccc(/C=C2\SC(Nc3cccc4ccccc34)=NC2=O)cc1O [Compound 6, (Z)-5-(3-Hydroxy-4-methoxybenzylidene)-2-(naphthalen-1-ylamino)thiazol-4(5H)-one]
[1]
  DPPH radical scavenging: 21%
